We go through 1 compound from patent US11346839B2, “Method for determining the interaction between a ligand and a receptor” (INSINGULO AB, priority 2018, dated 2022).

For this test, the target named is human-thrombin (Homo sapiens, UniProt P00734). As to conditions: Example 2, thrombin 1 pM.

Read-outs that look alike come from different tables or passages of the source.

Experimental: To yield liposomes with a diameter of ˜100 nm first the required lipids were solved in chloroform and mixed. In total 5 mg 2-Oleoyl-1-palmitoyl-sn-glycero-3-phosphocholine, 0.01 mg, 1,2-dioleoyl-sn-glycero-3-phosphoethanolamine-N-dibenzocyclooctyl and 0.005 mg 1,2-dipalmitoyl-sn-glycero-3-phosphoethanolamine-N-(lissamine rhodamine B sulfonyl) were mixed together. The lipid mixture was vacuum dried overnight. The dried lipids were hydrated in 1 ml HBS (150 mM NaCl, 20 mM/L HEPES at pH7.2) under gentle agitation. The lipid suspension was extruded through a PC-membrane with 100 nm pore size eleven times. Concentration of the liposomes was determined by light absorption at 544 nm and the concentration of the liposome solution was adjusted to 2.5 mg/ml. This equals a liposome concentration of approximately 30 nM.
To immobilize thrombin at the liposomes via click chemistry an azide-group was introduced to thrombin via NHS coupling. Therefore, 100 μL of human-thrombin at 2 mg/ml was mixed with 200 μL high salt PBS-buffer (10 mM Na2HPO4, 1.8 mM KH2PO4, 400 mM NaCl+33.5% Glycerol (v/v) at pH 7.4 and 13 μL NHS-PEG4-Azide at 10 mM. The mixture was incubated for 30 minutes at RT. The reaction was stopped by the addition of 500 μL high salt PBS-buffer (10 mM Na2HPO4, 1.8 mM KH2PO4, 400 mM NaCl+33.5% Glycerol (v/v) at pH 6.6.
1.5 μL of the thrombin-azide were mixed with 48.5 μL icecold CHES-buffer (20 mM CHES, 150 mM NaCl) at pH 8.5 and subsequently 50 μL of the liposome solution is added. This mix was stored for at least 30 minutes on ice. 10 μL of the reaction mix was diluted with 990 μL icecold CHES-buffer (20 mM CHES, 150 mM NaCl) at pH 8.5.
After curing, into each well of the microplate 10 μL of a solution containing 1 mg/ml PLL-g-PEG and 1 mg/ml PLL-g-PEG-biotin are added. The plate was incubated for at least 1 h under gentle orbital agitation. After the incubation each well was washed 10-times with HBS-buffer. The dilution ratio of every washing step was at least 1:10. […]
The single molecule microscope was based on a Nikon Ti-E base. […] Images are recorded via a [sequence] […]

With `N=C(N)c1ccc(CNC(=O)[C@@H]2CCN2C(=O)[C@H](NCC(=O)O)C2CCCCC2)cc1` [melagatran], the kobs is, setting by setting: (one hundred wells summed, melagatran 7.4 nM (FIG. 6)) 0.22 s⁻¹; (single well, melagatran 7.4 nM (FIG. 4)) “could not be reliably fitted”; (two wells summed, melagatran 7.4 nM (FIG. 5)) 0.43 s⁻¹.
